# Biological target: T1, KSP motor domain (Homo sapiens, UniProt P52732)
# T1 sequence (P52732 18-359 limits assumed): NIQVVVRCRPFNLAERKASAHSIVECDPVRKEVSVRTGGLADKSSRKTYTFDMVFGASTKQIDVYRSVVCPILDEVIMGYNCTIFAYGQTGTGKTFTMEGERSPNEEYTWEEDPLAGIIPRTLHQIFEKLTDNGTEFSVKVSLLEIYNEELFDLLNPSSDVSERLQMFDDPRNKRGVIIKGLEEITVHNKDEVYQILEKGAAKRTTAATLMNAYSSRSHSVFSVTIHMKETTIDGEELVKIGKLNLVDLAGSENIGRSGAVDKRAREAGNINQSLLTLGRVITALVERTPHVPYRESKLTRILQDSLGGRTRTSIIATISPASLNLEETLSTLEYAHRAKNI
# Assay: biochemical
# Conditions: KSP inhibitory activity, end-point assay; class symbols (Table 1)
row,Structure (SMILES),IC50 (nM)
1,CC(C)(C)C1CCc2nc3sc(C(=O)NCC(N)=O)cc3cc2C1 (stereo not shown) [Example 81],A/B
2,"CC(C)(C)C1CCc2nc3sc(NC(N)=O)cc3cc2C1 (stereo not shown) [Example 125, (6-tert-Butyl-5,6,7,8-tetrahydrothieno[2,3-b]quinolin-2-yl)urea]",B/C

# Same assay, conditions: KSP inhibitory activity, end-point assay; class symbols (Table 1); read-out: IC50
row,Structure (SMILES),IC50
1,CC(C)(C)OC(=O)N1CCc2nc3sc(C#N)c(N)c3cc2C1 [Example 42],> 10000 nM
2,"CC(C)(C)[C@@H]1CCc2nc3sc(C(=O)N[C@H](CN)c4cccc(NC(=O)c5ccco5)c4)cc3cc2C1 [Example 262, 6-tert-Butyl-5,6,7,8-tetrahydrothieno[2,3-b]quinoline-2-carboxylic acid (2-amino-1-{3-[(furan-2-carbonyl)amino]phenyl}ethyl)amide]",< 100 nM
3,CCC(C)(C)C1Cc2cc3c(N)c(C#N)sc3nc2C1 (stereo not shown) [Example 38],1000 to 10000 nM
4,"CC(C)(C)C1CCc2nc3sc(C(=O)NCC(=N)N)cc3cc2C1 (stereo not shown) [Example 168, 6-tert-Butyl-5,6,7,8-tetrahydrothieno[2,3-b]quinoline-2-carboxylic acid carbamimidoylmethylamide]",< 100 nM
5,CC(C)C(C)(C)C1CCc2nc3sc(C#N)c(N)c3cc2C1 (stereo not shown) [Example 7],> 10000 nM
6,"CC(C)(C)C1CCc2nc3sc(C(=O)NCCN)c(N)c3cc2C1 (stereo not shown) [Example 193, 3-Amino-N-(2-Aminoethyl)-6-(1,1-Dimethylethyl)-5,6,7,8-Tetrahydrothieno[2,3-b]quinoline-2-Carboxamide]",1000 to 10000 nM
7,CC(C)(C)[C@@H]1CCc2nc3sc(C(=O)N[C@H](CN)c4cccc(NCc5ccccc5)c4)cc3cc2C1 [Example 283],< 100 nM
8,Cc1cc(C(=O)Nc2cccc([C@@H](CN)NC(=O)c3cc4cc5c(nc4s3)CC[C@@H](C(C)(C)C)C5)c2)nn1C [Example 244],< 100 nM
9,N#Cc1sc2nc3c(cc2c1N)CC(c1ccccc1)CC3 (stereo not shown) [Example 3],> 10000 nM
10,CC(CO)NC(=O)c1cc2cc3c(nc2s1)CCC(C(C)(C)C)C3 (stereo not shown) [Example 82],1000 to 10000 nM
11,CC(C)=C/C=C1\CCc2nc3sc(C#N)c(N)c3cc2C1 [Example 36],> 10000 nM
12,CC(C)(C)C1CCCc2nc3sc(C#N)cc3cc2C1 (stereo not shown) [Example 60],< 100 nM
13,CC(C)(C)C1CCc2nc3sc(C(=O)N[C@H](CN)c4ccc(C#N)cc4)cc3cc2C1 (stereo partly shown) [Example 216],< 100 nM
14,CC(C)(C)C1CCc2nc3sc(C(=O)N[C@H](CN)c4ccc([N+](=O)[O-])cc4)cc3cc2C1 (stereo partly shown) [Example 215],< 100 nM
15,Cn1nccc1C(=O)Nc1cccc([C@@H](CNCCO)NC(=O)c2cc3cc4c(nc3s2)CC[C@@H](C(C)(C)C)C4)c1 [Example 267],100 to 1000 nM
16,CC(C)(C)C1CCc2nc3sc(C(=O)Nc4cccnc4)cc3cc2C1 (stereo not shown) [Example 226B],100 to 1000 nM
17,CC(C)(C)C1CCc2cc3cc(C#N)sc3nc2CC1 (stereo not shown) [Example 61],1000 to 10000 nM
18,CC(C)(C)C1CCc2nc3sc(CN)cc3cc2C1 (stereo not shown) [Example 153],1000 to 10000 nM
19,"CC(C)[C@@H](CN)NC(=O)c1cc2cc3c(nc2s1)CCC(C(C)(C)C)C3 (stereo partly drawn) [Example 175, 6-tert-butyl-5,6,7,8-tetrahydrothieno[2,3-b]quinoline-2-carboxylic acid [(1S)-1-aminomethyl-2-methylpropyl)amide]",1000 to 10000 nM
20,Cc1cnc(C(=O)Nc2cccc([C@@H](CN)NC(=O)c3cc4cc5c(nc4s3)CC[C@@H](C(C)(C)C)C5)c2)cn1 [Example 259],< 100 nM
21,CC1Cc2nc3sc(C#N)c(N)c3cc2C(C)C1 (stereo not shown) [Example 46],> 10000 nM
22,"Cc1cc(C(=O)Nc2cccc([C@@H](CNCCO)NC(=O)c3cc4cc5c(nc4s3)CC[C@@H](C(C)(C)C)C5)c2)no1 [Example 266, 6(R)-tert-butyl-5,6,7,8-tetrahydro-thieno[2,3-b]quinoline-2-carboxylic acid (2-(2-hydroxy-ethylamino)-1(S)-{3-[(5-methyl-isoxazole-3-carbonyl)-amino]-phenyl}-ethyl)-amide]",< 100 nM
23,CC(C)CCC1CCc2nc3sc(C#N)c(N)c3cc2C1 (stereo not shown) [Example 20],> 10000 nM
24,CC(C)(C)[C@@H]1CCc2nc3sc(C(=O)N[C@H](CN)c4cccc(NC(=O)c5cc[nH]n5)c4)cc3cc2C1 [Example 236],< 100 nM
25,CCNC(=O)c1cc2cc3c(nc2s1)CCC(C(C)(C)C)C3 (stereo not shown) [Example 79],1000 to 10000 nM

row,Structure (SMILES),IC50
1,COC(=O)[C@H]1CCCN1C(=O)c1cc2cc3c(nc2s1)CCC(C(C)(C)C)C3 (stereo partly shown) [Example 89],> 10000 nM
2,"CC1Cc2nc3sc(C(N)=O)cc3cc2CC1C(C)(C)C (stereo not shown) [Example 204, 6-tert-Butyl-7-methyl-5,6,7,8-tetrahydro-thieno[2,3,-b]quinoline-2-carboxylic acid amide]",100 to 1000 nM
3,CC(C)(C)C1CCc2nc3sc(C(=O)Nc4cccc(N)c4)cc3cc2C1 (stereo not shown) [Example 226D],100 to 1000 nM
4,"CC(C)(C)C1CCc2nc3sc(C#N)c(Br)c3cc2C1 (stereo not shown) [Example 112, 6-tert-Butyl-3-bromo-5,6,7,8-tetrahydrothieno[2,3-b]quinoline-2-carbonitrile]",> 10000 nM
5,CC(C)(C)C1CCc2nc3sc(C(=O)N4C[C@H](O)C[C@@H]4C(=O)O)cc3cc2C1 (stereo partly shown) [Example 93],> 10000 nM
6,CC(C)(C)[C@@H]1CCc2nc3sc(C(=O)N[C@H](CN)c4cccc(NC(=O)c5nccnc5N)c4)cc3cc2C1 [Example 261],< 100 nM
7,CC(C)(C)C1CCc2nc3sc(C(=O)N[C@H](C(=N)N)c4ccccc4)cc3cc2C1 (stereo partly shown) [Example 172],100 to 1000 nM
8,Cc1nnsc1C(=O)Nc1cccc([C@@H](CN)NC(=O)c2cc3cc4c(nc3s2)CC[C@@H](C(C)(C)C)C4)c1 [Example 258],< 100 nM
9,CCC(C)(C)C1CCc2nc3sc(C(N)=O)cc3c(O)c2C1 (stereo not shown) [Example 116],> 10000 nM
10,"CCC1Cc2nc3sc(C#N)cc3cc2CC1C(C)(C)C (stereo not shown) [Example 206, 6-tert-Butyl-7-ethyl-5,6,7,8-tetrahydro-thieno[2,3,-b]quinoline-2-carbonitrile]",1000 to 10000 nM
11,Cn1nc(C(F)(F)F)c(C(=O)Nc2cccc([C@@H](CN)NC(=O)c3cc4cc5c(nc4s3)CC[C@@H](C(C)(C)C)C5)c2)c1Cl [Example 246],< 100 nM
12,CC(C)(C)C1CCc2nc3sc(C(=O)N[C@H](CN)c4cccc([N+](=O)[O-])c4)cc3cc2C1 (stereo partly shown) [Example 214],< 100 nM
13,CNc1nsnc1C(=O)Nc1cccc([C@@H](CN)NC(=O)c2cc3cc4c(nc3s2)CC[C@@H](C(C)(C)C)C4)c1 [Example 256],< 100 nM
14,CC(C)(C)[C@@H]1CCc2nc3sc(C(=O)N[C@H](CN)c4cccc(NC(=O)c5cc(-c6ccccc6)on5)c4)cc3cc2C1 [Example 234],< 100 nM
15,CCC1CCc2nc3sc(C#N)c(N)c3cc2C1 (stereo not shown) [Example 17],1000 to 10000 nM
16,Cc1cc(C(=O)Nc2ccc([C@@H](CN)NC(=O)c3cc4cc5c(nc4s3)CC[C@@H](C(C)(C)C)C5)cc2)no1 [Example 274],< 100 nM
17,"CC(CO)NC(=O)c1sc2nc3c(cc2c1N)CC(C(C)(C)C)CC3 (stereo in doubt) [Example 192, 3-Amino-6-(1,1-Dimethylethyl)-5,6,7,8-Tetrahydro-N-(2-Hydroxy-1(S)-Methylethyl)thieno[2,3-b]quinoline-2-Carboxamide]",1000 to 10000 nM
18,CN(C)C(=O)c1cc2cc3c(nc2s1)CCC(C(C)(C)C)C3 (stereo not shown) [Example 80],> 10000 nM
19,CC(C)(C)[C@@H]1CCc2nc3sc(C(=O)N[C@H](CN)c4cccc(NC(=O)c5ncc[nH]5)c4)cc3cc2C1 [Example 247],< 100 nM
20,CC(C)(C)C1CCc2nc3sc(CNC(=O)C4CC4)cc3cc2C1 (stereo not shown) [Example 155],1000 to 10000 nM
21,N#Cc1sc2nc3c(cc2c1N)CC(C(F)(F)F)CC3 (stereo not shown) [Example 14],1000 to 10000 nM
22,CC(C)(C)C1CCc2nc3sc(CNC(N)=O)cc3cc2C1 (stereo not shown) [Example 156],100 to 1000 nM
23,CC(C)(C)C1CCc2nc3sc(C(=O)Nc4ccccc4)cc3cc2C1 (stereo not shown) [Example 77],> 10000 nM
24,CC(=O)NCc1cc2cc3c(nc2s1)CCC(C(C)(C)C)C3 (stereo not shown) [Example 154],1000 to 10000 nM

# Same assay, conditions: exact IC50 values, end-point assay (Table 2); read-out: IC50
row,Structure (SMILES),IC50
1,"CC(C)(C)C1CCc2nc3sc(C(=O)NCC(=N)N)cc3cc2C1 (stereo not shown) [Example 168, 6-tert-Butyl-5,6,7,8-tetrahydrothieno[2,3-b]quinoline-2-carboxylic acid carbamimidoylmethylamide]",8 nM
2,Cc1cnc(C(=O)Nc2cccc([C@@H](CN)NC(=O)c3cc4cc5c(nc4s3)CC[C@@H](C(C)(C)C)C5)c2)cn1 [Example 259],17 nM

# Same assay, conditions: number printed in brackets under a borderline class (A/B, B/C) in Table 1 of b1103; read-out: IC50
row,Structure (SMILES),IC50
1,CC(C)(C)C1CCc2nc3sc(C(=O)NCC(N)=O)cc3cc2C1 (stereo not shown) [Example 81],100 nM

# Tested on: not given
# Assay: not given
# Conditions: not given
row,melting point,Structure (SMILES)
1,84 to 86 °C,CCOC(=O)c1nc2cc3c(nc2s1)CCC(C(C)(C)C)C3 (racemic)
